In patent US20160318933A1, “FUSED PYRAZOLE DERIVATIVE” (SUMITOMO DAINIPPON PHARMA CO., LTD., priority 2013, published 2016):
pEC50: −log10 of the molar value.

Target: T1, human brain-derived dopamine D4 receptor (Homo sapiens, UniProt P21917)
T1 construct: expressed in transfected cells; host or cells: CHO (CHO-K1) or HEK293 cells
T1 sequence (P21917 1-419): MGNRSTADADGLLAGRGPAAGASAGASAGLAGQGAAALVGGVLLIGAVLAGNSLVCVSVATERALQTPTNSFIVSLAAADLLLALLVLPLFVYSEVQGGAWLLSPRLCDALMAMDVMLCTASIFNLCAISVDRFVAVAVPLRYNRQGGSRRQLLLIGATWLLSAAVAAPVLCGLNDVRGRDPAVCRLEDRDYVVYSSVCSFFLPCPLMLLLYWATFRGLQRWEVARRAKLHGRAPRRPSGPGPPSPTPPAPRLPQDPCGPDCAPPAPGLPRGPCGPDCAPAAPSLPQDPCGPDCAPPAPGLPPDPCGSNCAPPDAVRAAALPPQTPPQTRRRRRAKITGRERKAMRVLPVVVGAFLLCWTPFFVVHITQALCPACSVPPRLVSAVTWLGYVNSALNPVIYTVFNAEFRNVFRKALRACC
Assay: Agonistic activity in G protein dependent pathway of dopamine D4 receptor (aequorin intracellular calcium luminescence, FDSS)
Type: cell-based
Details: for pEC50: concentration required to achieve a 50% response of Emax, CHO-K1 or HEK293 cells transfected with D4 receptor; for Emax: read-out: Maximal activity on D4 receptor (%)
Text: The G protein dependent pathway is a pathway for transmitting signals in cells via a second messenger by stimulating a G protein through the binding of guanosine triphosphate (GTP) to the G protein. When GPCRs are activated by the binding of a ligand, a G protein binds to the GPCRs, and thereby GTP binds to a Gα subunit that is one of G protein subunits and a Gγβ subunit is dissociated. The activated Gα subunit regulates intracellular cAMP levels by the activation or inhibition of an adenylate cyclase, and regulates intracellular calcium levels by the activation of phospholipase C to transmit signals in cells.
The agonistic activities of the present compounds in the G protein dependent pathway were evaluated on the basis of intracellular calcium levels as follows. CHO-K1 or HEK293 cell lines transfected with D4 receptor genes were seeded in a 384-well plate, and incubated in a CO2 incubator at 37° C. for 24 hours, and then a solution of the present compound in DMSO was added into cells preloaded with coelenterazine to measure the change in luminescent signals with a FDSS (Hamamatsu Photonics K.K.). […] The agonistic activity of the present compound was calculated according to the measured luminescent signals, as the maximal activity (Emax) of the present compound. EC50 value was calculated as the concentration of the present compound required to achieve a 50% response of Emax.

pEC50	Emax [%]	SMILES
7.08	35	Cc1cccnc1-c1cc2n(n1)CCN(Cc1cnc(C(F)(F)F)nc1)C2 [Example 195]
7.26	64	Cn1c(CN2CCn3nc(-c4ncccc4F)cc3C2)nc2ccccc21 [Example 164]
7.05	34	Fc1ccc(CN2CCCn3nc(-c4ccccn4)cc3C2)cc1 [Example 9]
7.17	92	Cc1cccnc1-c1cc2n(n1)CCN(Cc1ccc(C(F)(F)F)cc1)C2 [Example 55]
7.38	49	Cc1c(-c2ccccn2)nn2c1CN(Cc1cn3c(n1)CCCC3)CC2 [Example 94]
7.19	38	Cc1c(-c2ncccc2F)nn2c1CN(Cc1ccc(C(F)F)cn1)CC2 [Example 179]
6.99	69	Nc1ncc(CN2CCn3nc(-c4ncccc4F)cc3C2)cn1 [Example 151]
7.72	60	c1ccc(-c2cc3n(n2)CCN(Cc2n[nH]c4ccccc24)C3)nc1 [Example 3]
7.00	57	COc1ccccc1-c1cc2n(n1)CCN(Cc1ccc(F)cc1F)C2 [Example 25, 5-(2,4-Difluorobenzyl)-2-(2-methoxyphenyl)-4,5,6,7-tetrahydropyrazolo[1,5-a]pyrazine]
7.89	98	Cc1c(-c2ncccc2F)nn2c1CN(Cc1ccc3c(n1)CCC3)CC2 [Example 125]
6.97	49	Cc1cccnc1-c1cc2n(n1)CCN(Cc1ncc(Br)cc1F)C2 [Example 183]
7.42	71	Cn1c(CN2CCn3nc(-c4ncccc4F)cc3C2)cc2ccccc21 [Example 150]
7.43	61	Cc1c(-c2ccccn2)nn2c1CN(Cc1ccc(C#N)cc1)CC2 [Example 75]
6.60	48	Cc1ncc(CN2CCn3nc(-c4ncccc4F)cc3C2)cn1 [Example 171]
7.03	54	Cc1cccnc1-c1cc2n(n1)CCN(Cc1cnn3c1CCCC3)C2 [Example 88]
7.24	62	Cc1cccnc1-c1cc2n(n1)CCN(Cc1ccc3c(c1)N(C)C(=O)CS3)C2 [Example 77]
6.84	71	Cc1cnc(CN2CCn3nc(-c4ncccc4C)c(C)c3C2)cn1 [Example 119]
8.47	83	Fc1cccnc1-c1cc2n(n1)CCN(Cc1ccccc1)C2 [Example 79]
6.80	54	Cc1cccnc1-c1cc2n(n1)CCN(Cc1n[nH]c3cccc(C)c13)C2 [Example 45]
7.24	49	Cc1cccnc1-c1cc2n(n1)CCN(Cc1cnc(C)c(Cl)c1)C2 [Example 189, 5-[(5-Chloro-6-methylpyridin-3-yl)methyl]-2-(3-methylpyridin-2-yl)-4,5,6,7-tetrahydropyrazolo[1,5-a]pyrazine]

pEC50	Emax [%]	SMILES
7.60	71	CN1Cc2ccc(CN3CCn4nc(-c5ccccn5)cc4C3)cc2C1 [Example 23, 5-[(2-Methyl-2,3-dihydro-1H-isoindol-5-yl)methyl]-2-(pyridin-2-yl)-4,5,6,7-tetrahydropyrazolo[1,5-a]pyrazine]
6.95	53	Fc1ccc(CN2CCn3nc(-c4ncccc4F)cc3C2)nc1 [Example 160]
7.00	57	Cc1cnc(CN2CCn3nc(-c4ncccc4C)cc3C2)cn1 [Example 154]
7.54	55	Cc1cccnc1-c1cc2n(n1)CCN(Cc1cc3ccccn3n1)C2 [Example 90]
7.15	32	O=C1NCc2cc(CN3CCn4nc(-c5ccccn5)cc4C3)ccc21 [Example 51]
7.70	71	Fc1cccnc1-c1cc2n(n1)CCN(Cc1ccc3c(n1)CCCC3)C2 [Example 130]
7.35	59	Cc1ncc(CN2CCn3nc(-c4ncccc4F)cc3C2)c(N)n1 [Example 46]
7.07	85	FC(F)(F)c1cccnc1-c1cc2n(n1)CCN(Cc1ccccc1)C2 [Example 140, 5-Benzyl-2-[3-(trifluoromethyl)pyridin-2-yl]-4,5,6,7-tetrahydropyrazolo[1,5-a]pyrazine]
7.36	59	Cc1ccc(CN2CCn3nc(-c4ccccn4)c(C)c3C2)cc1 [Example 76]
7.33	71	Cc1cccnc1-c1cc2n(n1)CCN(Cc1cn(C)c3ccccc13)C2 [Example 148]
7.70	69	Cc1cccnc1-c1cc2n(n1)CCN(Cc1ccc([N+](=O)[O-])cc1)C2 [Example 65]
6.99	40	Cc1cccnc1-c1cc2n(n1)CCN(Cc1cccc(OC(F)(F)F)c1)C2 [Example 63]
6.90	50	Cc1cccnc1-c1cc2n(n1)CCN(Cc1ccc(CO)cn1)C2 [Example 157]
6.85	52	Cc1cccnc1-c1cc2n(n1)CCN(Cc1ccc(OC(F)(F)F)cc1F)C2 [Example 66]
7.27	63	Cc1ccc(CN2CCn3nc(-c4ccccn4)cc3C2)c(N)n1 [Example 19]
6.62	51	Cc1cccnc1-c1nn2c(c1C)CN(Cc1ccc(C(F)(F)F)nc1)CC2 [Example 117]
8.04	62	c1ccc(-c2cc3n(n2)CCN(Cc2ccc4cn[nH]c4c2)C3)nc1 [Example 15]
7.03	57	Cn1nc(CN2CCn3nc(-c4ncccc4C(F)(F)F)cc3C2)c2ccccc21 [Example 153]
7.19	93	Cc1ccc(CN2CCn3nc(-c4ncccc4C)c(C)c3C2)nc1 [Example 114]
7.07	45	Cc1cccnc1-c1cc2n(n1)CCN(Cc1ccc3c(c1)N(C)C(=O)CC3)C2 [Example 70]

pEC50	Emax [%]	SMILES
7.26	70	Cc1cccc(CN2CCn3nc(-c4ncccc4C)cc3C2)n1 [Example 156]
7.14	65	Cc1c(-c2ccccn2)nn2c1CN(Cc1ccc(C(F)(F)F)cc1)CC2 [Example 74]
7.70	71	c1ccc(CN2CCn3nc(-c4ccccn4)cc3C2)cc1 [Example 1, 5-Benzyl-2-(pyridin-2-yl)-4,5,6,7-tetrahydropyrazolo[1,5-a]pyrazine]
8.00	82	Cc1cccnc1-c1cc2n(n1)CCN(Cc1cccc(CF)n1)C2 [Example 137]
7.37	76	Cc1ncc(CN2CCn3nc(-c4ncccc4F)cc3C2)c(C)n1 [Example 191]
7.10	53	Cc1ncc(CN2CCn3nc(-c4ncccc4C)cc3C2)c(N)n1 [Example 30, 2-Methyl-5-{[2-(3-methylpyridin-2-yl)-6,7-dihydropyrazolo[1,5-a]pyrazin-5(4H)-yl]methyl}pyrimidine-4-amine]
8.30	47	Cc1cccnc1-c1cc2n(n1)CCN(Cc1ccc(C(F)F)cn1)C2 [Example 133]
6.94	48	Fc1cccc2[nH]nc(CN3CCn4nc(-c5ccccn5)cc4C3)c12 [Example 102]
6.86	51	COc1ccccc1-c1cc2n(n1)CCN(Cc1ccc(C)nc1N)C2 [Example 16]
7.29	44	Cc1cccnc1-c1cc2n(n1)CCN(Cc1cnc3c(c1)CCCC3)C2 [Example 186]
7.08	77	Cc1cccnc1-c1cc2n(n1)CCN(Cc1ccc(C#N)cc1)C2 [Example 57]
7.77	60	Fc1ccc2[nH]nc(CN3CCn4nc(-c5ccccn5)cc4C3)c2c1 [Example 4]
7.66	65	Fc1cccnc1-c1cc2n(n1)CCN(Cc1c[nH]c3ccccc13)C2 [Example 165]
7.89	61	Cc1ccc(CN2CCn3nc(-c4ncccc4C)cc3C2)nc1 [Example 107]
7.35	52	Cc1cccnc1-c1cc2n(n1)CCN(Cc1cc3ccccc3[nH]1)C2 [Example 145]
7.39	39	Cc1ccc(CN2CCn3nc(-c4ncccn4)cc3C2)cc1 [Example 176]
7.30	47	Cc1cccnc1-c1cc2n(n1)CCN(Cc1ccc(CF)nc1)C2 [Example 122]
7.16	64	Fc1cccnc1-c1cc2n(n1)CCN(Cc1ccc(C(F)(F)F)cc1)C2 [Example 68]
